# Laboratory results published in patent publication US10617732B2, “Composition including extract of Dolichos lablab Linne as active ingredient for preventing or ameliorating non-alcoholic fatty liver disease” (KOREA INSTITUTE OF ORIENTAL MEDICINE, priority 2014, dated 2020).
# System: hepatocarcinoma cell line (HepG2)
# Experiment: Oil Red O staining assay of triglyceride in free fatty acid-treated cells
# Format: cell-based
# Conditions: HepG2, 1 mM free fatty acid; 10, 30, 50 and 100 μM
# Description: After the medium was removed from the Hepatocarcinoma cell line (HepG2), the cells were washed with 0.5 ml of PBS buffer solution, and the PBS buffer solution was completely removed therefrom. Then, 0.5 ml of 10% formalin was added thereto at room temperature and the resultant cells were incubated for 10 minutes.
# After removing the formalin and adding 0.5 ml of fresh formalin, the cells were incubated for at least 1 hour (the cells can be stored in a formalin solution for several days before staining, and needs to be wrapped with an aluminum foil and parafilm to prevent the cells from being dried). […]
# 0.5 ml of an Oil Red O solution was added to the dried cells, which was then incubated at room temperature for 10 minutes. […] The debris of the staining solution was removed as much as possible, and images of the cells were obtained using a fluorescence microscope.
# To the cells that had been completely dried, 0.5 ml of Oil Red O staining solution prepared by using 100% of isopropanol in a dry state was added. […] At this time, the resultant solution was mixed with a pipette up and down so that the cells were stained well with Oil Red O. Then, the mixture was transferred to a 96-well plate and the OD was measured at 500 nm. The OD value of 100% isopropanol was measured and used as a reference value (0 point).
smiles,measurement,value
CC1(C)[C@@H](O)CC[C@]2(C)[C@H]3C(=O)C=C4[C@@H]5C[C@@](C)(C(=O)O)CC[C@]5(C)CC[C@@]4(C)[C@]3(C)CC[C@@H]12 [18 beta-glycyrrhetinic acid],content of triglyceride in Oil-red-O staining images,"the higher concentration of 18 beta-glycyrrhetinic acid, the smaller content of triglyceride"
